These results are taken from patent EP4806898A1, “HETEROARYL DERIVATIVE COMPOUND AND USE THEREOF” (Voronoi Inc., priority 2023, dated 2025).

SMILES strings stand for the structures.

One experiment addresses T1, recombinant USP1 protein (Homo sapiens, UniProt O94782, DEL125-138/DEL229-408/DEL608-737).
T1 sequence (O94782 with tags, fused parts or gaps DEL125-138/DEL229-408/DEL608-737): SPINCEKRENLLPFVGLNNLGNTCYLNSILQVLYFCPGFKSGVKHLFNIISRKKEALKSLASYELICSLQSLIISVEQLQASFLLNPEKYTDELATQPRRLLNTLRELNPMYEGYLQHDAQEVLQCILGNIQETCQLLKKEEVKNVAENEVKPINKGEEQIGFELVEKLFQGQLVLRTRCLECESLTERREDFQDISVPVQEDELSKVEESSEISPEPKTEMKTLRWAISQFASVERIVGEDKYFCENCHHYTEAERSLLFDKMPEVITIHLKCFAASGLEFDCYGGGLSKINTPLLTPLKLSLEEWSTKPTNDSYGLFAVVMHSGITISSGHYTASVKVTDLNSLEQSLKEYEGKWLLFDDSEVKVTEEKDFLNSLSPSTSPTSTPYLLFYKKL
Nature of the experiment: Binding affinity to recombinant USP1 protein by differential scanning fluorimetry. Particulars: compound 100 µM; 0.03 mg/mL USP1 (Δ1-66, Δ125-138, Δ229-408, Δ608-737); Tm with compound minus Tm with DMSO; read-out: ΔTm (°C). Put shortly:
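Thermal shift readout: ΔTm is the compound-well melting temperature less the DMSO-well value, measured by real-time PCR. Compounds tested at 100 µM final against 0.03 mg/mL truncated USP1 (Δ1-66, Δ125-138, Δ229-408, Δ608-737) in pH 8.0 Tris buffer containing 150 mM NaCl, 2% glycerol, 1 mM DTT.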
Background: Differential scanning fluorimetry follows unfolding on heating by fluorescence.

For another experiment, the system named is UWB1.289 cells. Nature of the experiment: Cell proliferation inhibitory activity in BRCA1/2-mutant or HRD-positive cells (Cell Titer-Glo). Type of experiment: cell-based. Particulars: UWB1289; UWB1.289 cells, 144 hours after compound treatment, Cell Titer-Glo, 1.5 nM to 10 µM; read-out: GI50 UWB1.289 BRCA1 mut. Put shortly:
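GI50 from CellTiter-Glo luminescence after 144 h compound exposure at 37 °C. Cells seeded at 1,000 per well in MEBM/RPMI1640 mix 16–24 h beforehand; […] from 10 µM down to 1.5 nM final (3-fold steps).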
(In general: In ATP-based viability assays light output follows the ATP content of the culture.)

The ΔTm is the shift of the melting midpoint relative to a reference. The term GI50 denotes the concentration at which growth is held to half of that of the control.

In the case of `COc1ncnc(C2CC2)c1-c1ncc2cc(C(=O)N3CC(N)C3)n(Cc3ccc(-c4nc(C(F)(F)F)cn4C(C)C)cc3)c2n1` [Example 99, (3-aminoazetidin-1-yl)(2-(4-cyclopropyl-6-methoxypyrimidin-5-yl)-7-(4-(1-isopropyl-4-(trifluoromethyl)-1H-imidazol-2-yl)benzyl)-7H-pyrrolo[2,3-d]pyrimidin-6-yl)methanone], the shift in melting temperature (ΔTm) at 100 µM on recombinant USP1 protein was above 5 °C. The GI50 with UWB1.289 cells is below 100 nM.

Turning to `COc1ncnc(C2CC2)c1-c1ncc2cc(C(=O)NCCN)n(Cc3ccc(-c4nc(C(F)(F)F)cn4C(C)C)cc3)c2n1` [Example 100, N-(2-aminoethyl)-2-(4-cyclopropyl-6-methoxypyrimidin-5-yl)-7-(4-(1-isopropyl-4-(trifluoromethyl)-1H-imidazol-2-yl)benzyl)-7H-pyrrolo[2,3-d]pyrimidine-6-carboxamide], the ΔTm at 100 µM on recombinant USP1 protein is above 5 °C. For the same compound, in the experiment on UWB1.289 cells, the GI50 was 100 to 500 nM.

Consider `COc1ncnc(C2CC2)c1-c1ncc2cc(C(=O)N3CC(F)C3)n(Cc3ccc(-c4nc(C(F)(F)F)cn4C(C)C)cc3)c2n1` [Example 101, (2-(4-cyclopropyl-6-methoxypyrimid in-5-yl)-7-(4-(1-isopropyl-4-(trifluoromethyl)-1H-imidazol-2-yl)benzyl)-7H-pyrrolo[2,3-d]pyrimidin-6-yl) (3-fluoroazetidin-1-yl)methanone], for which the ΔTm at 100 µM on recombinant USP1 protein was above 5 °C. For the same compound, in the experiment on UWB1.289 cells, the GI50 is 100 to 500 nM.

Take `COc1ncnc(C2CC2)c1-c1ncc2cc(C(=O)NCCN3CCN(C)CC3)n(Cc3ccc(-c4nc(C(F)(F)F)cn4C(C)C)cc3)c2n1` [Example 102, 2-(4-cyclopropyl-6-methoxypyrimidin-5-yl)-7-(4-(1-isopropyl-4-(trifluoromethyl)-1H-imidazol-2-yl)benzyl)-N-(2-(4-methylpiperazin-1-yl)ethyl)-7H-pyrrolo[2,3-d]pyrimidine-6-carboxamide]: the ΔTm at 100 µM on recombinant USP1 protein was above 5 °C. The GI50 in the experiment on UWB1.289 cells is below 100 nM.

With `COc1ncnc(C2CC2)c1-c1ncc2cc(C(=O)NC3(C)COC3)n(Cc3ccc(-c4nc(C(F)(F)F)cn4C(C)C)cc3)c2n1` [Example 104, 2-(4-cyclopropyl-6-methoxypyrimidin-5-yl)-7-(4-(1-isopropyl-4-(trifluoromethyl)-1H-imidazol-2-yl)benzyl)-N-(3-methyloxetan-3-yl)-7H-pyrrolo[2,3-d]pyrimidine-6-carboxamide], the ΔTm at 100 µM at recombinant USP1 protein is above 5 °C. In the experiment on UWB1.289 cells, the GI50 was below 100 nM.

For the compound `COc1ncnc(C2CC2)c1-c1ncc2cc(C(=O)N3CC[C@@H](O)C3)n(Cc3ccc(-c4nc(C(F)(F)F)cn4C(C)C)cc3)c2n1` [Example 105, (R) - (2-(4-cyclopropyl-6-methoxypyrimid in-5-yl)-7-(4-(1-isopropyl-4-(trifluoromethyl)-1H-imidazol-2-yl)benzyl)-7H-pyrrolo[2,3-d]pyrimidin-6-yl) (3-hydroxypyrrolidin-1-yl)methanone], the ΔTm at 100 µM on recombinant USP1 protein was above 5 °C. Moreover, the GI50 with UWB1.289 cells fell in the range of 100 to 500 nM.

As for `COCCNC(=O)c1cc2cnc(-c3c(OC)ncnc3C3CC3)nc2n1Cc1ccc(-c2nc(C(F)(F)F)cn2C(C)C)cc1` [Example 106, 2-(4-cyclopropyl-6-methoxypyrimidin-5-yl)-7-(4-(1-isopropyl-4-(trifluoromethyl)-1H-imidazol-2-yl)benzyl)-N-(2-methoxyethyl)-7H-pyrrolo[2,3-d]pyrimidine-6-carboxamide], the ΔTm at 100 µM at recombinant USP1 protein was above 5 °C. In addition, the GI50 in the experiment on UWB1.289 cells was below 100 nM.

For `COc1ncnc(C2CC2)c1-c1ncc2cc(C(=O)NC[C@@H]3CCCN3C)n(Cc3ccc(-c4nc(C(F)(F)F)cn4C(C)C)cc3)c2n1` [Example 108, (S)-2-(4-cyclopropyl-6-methoxypyrimidin-5-yl)-7-(4-(1-isopropyl-4-(trifluoromethyl)-1H-imidazol-2-yl)benzyl)-N-((1-methylpyrrolidin-2-yl)methyl)-7H-pyrrolo[2,3-d]pyrimidine-6-carboxamide], the thermal shift (ΔTm) at 100 µM at recombinant USP1 protein was above 5 °C. Besides, in the experiment with UWB1.289 cells, the GI50 was below 100 nM.

For the compound `CN[C@@H]1CCN(C(=O)c2cc3cnc(-c4c(OC)ncnc4C4CC4)nc3n2Cc2ccc(-c3nc(C(F)(F)F)cn3C(C)C)cc2)C1` [Example 109, (R) - (2-(4-cyclopropyl-6-methoxypyrimid in-5-yl)-7-(4-(1-isopropyl-4-(trifluoromethyl)-1H-imidazol-2-yl)benzyl)-7H-pyrrolo[2,3-d]pyrimidin-6-yl) (3-(methylamino)pyrrolidin-1-yl)methanone], on recombinant USP1 protein, the ΔTm at 100 µM is above 5 °C. Also, in the experiment on UWB1.289 cells, the GI50 is below 100 nM.

Take `COc1ncnc(C2CC2)c1-c1ncc2cc(C(=O)NC3CN(C)C3)n(Cc3ccc(-c4nc(C(F)(F)F)cn4C(C)C)cc3)c2n1` [Example 110, 2-(4-cyclopropyl-6-methoxypyrimidin-5-yl)-7-(4-(1-isopropyl-4-(trifluoromethyl)-1H-imidazol-2-yl)benzyl)-N-(1-methylazetidin-3-yl)-7H-pyrrolo[2,3-d]pyrimidine-6-carboxamide]: at recombinant USP1 protein, the ΔTm at 100 µM is above 5 °C. Also, the GI50 with UWB1.289 cells was in the range of 100 to 500 nM.

Consider `COc1ncnc(C2CC2)c1-c1ncc2cc(C(=O)N(C)C3COC3)n(Cc3ccc(-c4nc(C(F)(F)F)cn4C(C)C)cc3)c2n1` [Example 111, 2-(4-cyclopropyl-6-methoxypyrimidin-5-yl)-7-(4-(1-isopropyl-4-(trifluoromethyl)-1H-imidazol-2-yl)benzyl)-N-methyl-N-(oxetan-3-yl)-7H-pyrrolo[2,3-d]pyrimidine-6-carboxamide], for which the ΔTm at 100 µM at recombinant USP1 protein was above 5 °C. In the experiment with UWB1.289 cells, the GI50 is 100 to 500 nM.

In the case of `COc1ncnc(C2CC2)c1-c1ncc2cc(C(=O)N3C[C@H](O)[C@H]3C)n(Cc3ccc(-c4nc(C(F)(F)F)cn4C(C)C)cc3)c2n1` [Example 112, (2-(4-cyclopropyl-6-methoxypyrimid in-5-yl)-7-(4-(1-isopropyl-4-(trifluoromethyl)-1H-imidazol-2-yl)benzyl)-7H-pyrrolo[2,3-d]pyrimidin-6-yl)((2R,3S)-3-hydroxy-2-methylazetidin-1-yl)methanone], the thermal shift (ΔTm) at 100 µM on recombinant USP1 protein is above 5 °C. The GI50 with UWB1.289 cells is below 100 nM.

Consider `COc1ncnc(C2CC2)c1-c1ncc2cc(C(=O)N[C@@H](C)CO)n(Cc3ccc(-c4nc(C(F)(F)F)cn4C(C)C)cc3)c2n1` [Example 113, (S)-2-(4-cyclopropyl-6-methoxypyrimidin-5-yl)-N-(1-hydroxypropan-2-yl)-7-(4-(1-isopropyl-4-(trifluoromethyl)-1H-imidazol-2-yl)benzyl)-7H-pyrrolo[2,3-d]pyrimidine-6-carboxamide], for which, on recombinant USP1 protein, the ΔTm at 100 µM was above 5 °C. Moreover, in the experiment on UWB1.289 cells, the GI50 is below 100 nM.

`COc1ncnc(C2CC2)c1-c1ncc2cc(C(=O)NCC(C)C)n(Cc3ccc(-c4nc(C(F)(F)F)cn4C(C)C)cc3)c2n1` [Example 114, 2-(4-cyclopropyl-6-methoxypyrimidin-5-yl)-N-isobutyl-7-(4-(1-isopropyl-4-(trifluoromethyl)-1H-imidazol-2-yl)benzyl)-7H-pyrrolo[2,3-d]pyrimidine-6-carboxamide]: on recombinant USP1 protein, the ΔTm at 100 µM is above 5 °C. Besides, the GI50 in the experiment with UWB1.289 cells is below 100 nM.

In the case of `COc1ncnc(C2CC2)c1-c1ncc2cc(C(=O)N[C@@H]3CCC[C@H]3N(C)C)n(Cc3ccc(-c4nc(C(F)(F)F)cn4C(C)C)cc3)c2n1` [Example 115, 2-(4-cyclopropyl-6-methoxypyrimidin-5-yl)-N-((1R,2R)-2-(dimethylamino)cyclopentyl)-7-(4-(1-isopropyl-4-(trifluoromethyl)-1H-imidazol-2-yl)benzyl)-7H-pyrrolo[2,3-d]pyrimidine-6-carboxamide], the ΔTm at 100 µM on recombinant USP1 protein is above 5 °C. Moreover, the GI50 with UWB1.289 cells is below 100 nM.

Turning to `COc1ncnc(C2CC2)c1-c1ncc2cc(C(=O)NC3(C)CC(F)(F)C3)n(Cc3ccc(-c4nc(C(F)(F)F)cn4C(C)C)cc3)c2n1` [Example 116, 2-(4-cyclopropyl-6-methoxypyrimidin-5-yl)-N-(3,3-difluoro-1-methylcyclobutyl)-7-(4-(1-isopropyl-4-(trifluoromethyl)-1H-imidazol-2-yl)benzyl)-7H-pyrrolo[2,3-d]pyrimidine-6-carboxamide], the shift in melting temperature (ΔTm) at 100 µM at recombinant USP1 protein was above 5 °C. For the same compound, in the experiment with UWB1.289 cells, the GI50 is below 100 nM.

Turning to `COc1ncnc(C2CC2)c1-c1ncc2cc(C(=O)N3CC[C@H](O)C3)n(Cc3ccc(-c4nc(C(F)(F)F)cn4C(C)C)cc3)c2n1` [Example 117, (S)-(2-(4-cyclopropyl-6-methoxypyrimidin-5-yl)-7-(4-(1-isopropyl-4-(trifluoromethyl)-1H-imidazol-2-yl)benzyl)-7H-pyrrolo[2,3-d]pyrimidin-6-yl) (3-hydroxypyrrolidin-1-yl)methanone], the ΔTm at 100 µM at recombinant USP1 protein is above 5 °C. Moreover, the concentration for 50% growth inhibition (GI50) with UWB1.289 cells was below 100 nM.
